Experiments:
Format in all cases: in vivo, mouse
[1] = tested on: NCI-H1650 (NSCLC) xenograft; experiment: NCI-H1650 xenograft tumor growth
Procedure: The potency of anti-huLRRC15 ADCs as compared to current standards of care was assessed in xenograft models with NCI-H1650 ([…]), HN5 (head and neck), EBC-1 (squamous NSCLC), NW231 (breast) and PANC1 (pancreatic) cancer cells. […] For FIG. 20A, NCI-H1650 cells (5 million cells) were implanted subcutaneously into SCID/Beige mice and tumors were randomized when they reached ˜200 mm^3 and dosed with biologics at 6 or 12 mg/kg intraperitoneally on a Q4D×6 (one dose given every 4 days for a total of 6 doses), while erlotinib was dosed orally daily for 10 days at 100 mg/kg, and carboplatin was dosed intraperitoneally Q4D×4 (one dose given every 4 days for a total of 4 doses) at 50 mg/kg.
NCI-H1650 NSCLC cancer cells (5 million) were implanted subcutaneously into SCID/Beige mice, and mice were randomized when the tumors reached ˜200 mm^3 and dosed with biologics at 6 or 12 mg/kg intraperitoneally on a Q4D×6 (one dose given every 4 days for a total of 6 doses), while erlotinib was dosed orally daily at 100 mg/kg for 10 doses.
NCI-H1650 NSCLC cancer cells (5 million) were implanted subcutaneously into SCID/Beige mice, and mice were randomized when the tumors reached ˜200 mm^3 and dosed on day 0 with isotype or ADC at 0.1, 0.3, or 0.6 mg/kg intraperitoneally.
NCI-H1650 adeno NSCLC cells (5 million) were implanted subcutaneously into SCID/Beige mice, and mice were randomized when the tumors reached ˜225 mm^3 and dosed with ADC at 0.6 mg/kg or isotype antibody at 12 mg/kg intraperitoneally once on day 0.

[2] = tested on: HN5 (head and neck) xenograft; experiment: HN5 xenograft tumor growth; conditions: HN5, NSG mice; ADC 4.5 mg/kg IP Q4D×6; erlotinib 150 mg/kg orally daily ×10; cetuximab 3 mg/kg IP Q7D×3 (FIG. 20B)
[3] = tested on: SCC-15 head and neck cancer xenograft; experiment: SCC-15 xenograft tumor growth
EBC-1 tumors = experiment: Ex vivo analysis (flow cytometry, microscopy, IHC) of treated EBC-1 tumors
Procedure: For the experiments, 5 million EBC-1 cells grown in vitro were implanted per mouse into the right flank of SCID-beige mice. Tumors were size-matched at ˜300 mm^3 and treated on day 0 and day 4 with 6 mg/kg intraperitoneally for each biologic drug shown in FIG. 15A. Tumors were harvested from the mice in each group 11 days post randomization and start of treatment. Tumors were dissociated into single cell suspensions using Miltenyi Biotec gentleMACS Dissociator according to the manufacturer's guidelines for the dissociation of tough tumors. Dissociated tumor cells were passed through a 70 μm filter, counted, and immediately used for flow cytometry. Single-cell suspensions were resuspended in PBS with 10% FBS and 10 μg/mL FcR block (anti-mouse CD16/CD32, clone 93, eBioscience, Cat. #16-0161.) The following directly conjugated antibodies were used for flow cytometry: human IgG1 κ isotype control (AB095) AF647, anti-huLRRC15 (hu208.4.1a.1a) AF647, anti-FAP (huFAP MAB5) AF647, mouse anti-human CD326 (EPCAM) PE (clone 1B7, eBioscience, Cat. #12-9326), anti-mouse CD11b PE (clone M1/70, eBioscience, Cat. #12-0112), anti mouse CD11c PE (clone N418, eBioscience, Cat. #12-0114), and anti-mouse F4/80 PE (clone BM9, eBioscience, Cat. #12-4801). Ex vivo EBC1 tumor cell suspensions were incubated with fluor-conjugated antibodies for 20 minutes on ice and washed twice using PBS with 1% FBS. Flow cytometry data were collected using a Becton Dickinson FacsCalibur, and data were analyzed using FlowJo™ analysis software (TreeStar). The ex vivo flow cytometry data (FIGS. 15B-15E) are shown as a percentage of cells gated positive for each antigen relative to total live cells gated via FSC/SCC. It should be noted that percentages reported are relative values to the total ex vivo EBC1 tumor and that a reduction in one cell population (e.g., EPCAM positive cancer cells) would result in an inverse increase in remaining cell populations when this analysis method is used.
Dissociated single-cell suspensions of the ex vivo EBC1 tumors shown in FIG. 15A were seeded at 120,000 live cells into tissue culture microscopy chamber slides. Cells were allowed to sit and incubate for 48 hours, and then fixed in 2% paraformaldehyde for 15 min at 37° C. The cells were washed with PBS and permeabilized using 0.3% Triton-X in PBS at 37° C. for 30 min. Cells were washed with PBS and blocked in 5% BSA for 30 min at 37° C. Cells were incubated with anti-α-SMA (clone 1A4 DAKO, Cat. #36962) and then detected with AlexaFluor AF594 (Life Technologies, Cat. #A21203) secondary antibody (2 μg/mL) for 30 min at 37° C. Subsequently, cells were stained using anti-human EpCAM-AF488 (Cell Signaling Technology, Cat. #5198) and washed 3× in PBS. Finally the slides were removed from the chambers and mounted with a coverslip using ProLong Diamond Anti-Fade with DAPI (Life Technologies, Cat. #36962). Image acquisition was performed using Zeiss Axiovision Software on a Zeiss Axiovert 200M inverted fluorescent microscope. Statistical differences between groups were determined using unpaired T tests in GraphPad Prism™. […] The percentage of pHH3 positive cells decreased with additional dosing and longer time (FIG. 15H) correlating with cancer cell death and tumor shrinkage (FIG. 15A).

[4] = NCI-H1650, SCID/Beige mice, biologics 6 or 12 mg/kg IP Q4D×6, erlotinib 100 mg/kg orally daily ×10, carboplatin 50 mg/kg IP Q4D×4 (FIG. 20A, 22A)
[5] = NCI-H1650, ADC 6 or 12 mg/kg IP Q4D×6 plus erlotinib 100 mg/kg orally daily ×10 (FIG. 22A)
[6] = SCC-15, SCID mice, ADCs 12 mg/kg IP Q7D×6, cetuximab 3 mg/kg IP Q7D×3 (FIG. 22B)
[7] = SCC-15, ADC 12 mg/kg IP Q7D×6 plus cetuximab 3 mg/kg IP Q7D×3 (FIG. 22B)
[8] = EBC-1 tumors, 6 mg/kg IP day 0 and 4, harvested day 11 (FIG. 15F)

“huM25-vcMMAE-E2: huM25 conjugated with maleimidocaproyl val-cit PABA MMAE, preparation enriched in DAR2 by HIC” was tested, and the “TGD, single agent” value [1, 4] was 450%, the “TGImax, single agent” value [1, 4] was 92% and the “TGD, used adjunctively with erlotinib” value [1, 5] was over 538%. The “TGImax, used adjunctively with erlotinib” value [1, 5] was 92%, the TGD [2] was 194% and the TGImax [2] was 96%. For the same substance, the “TGD, single agent” value [3, 6] was 44%, the “TGImax, single agent” value [3, 6] was 58% and the “TGD, used adjunctively with cetuximab” value [3, 7] was 125%. The “TGImax, used adjunctively with cetuximab” value [3, 7] was 87%, the “cancer cells in ex vivo tumor (microscopy count)” value (EBC-1 tumors; [8]) was “significant decrease” and the “fibroblast population in ex vivo tumor” value (EBC-1 tumors; [8]) was “continued to persist”. The “phosphohistone H3 (pHH3) staining, mitotic figures” value (EBC-1 tumors; EBC-1 tumors, 6 mg/kg, after 72 hours (FIG. 15G)) was “higher number of mitotic figures”, the “staining for CD45 and F4/80” value (EBC-1 tumors; EBC-1 tumors, day 11 post-treatment, 6 mg/kg, compared with isotype ADC (FIG. 15I)) was “enhanced staining” and the “immune infiltrate (CD11c or F4/80 positive cells)” value (EBC-1 tumors; ex vivo flow cytometry of EBC-1 tumors post treatment (FIGS. 15D-15E)) was “increase in immune infiltrate”.

— patent US11045480B2, “Anti-huLRRC15 antibody drug conjugates and methods for their use” (AbbVie Inc., priority 2015, dated 2021)
